Experimental data: ChEMBL document CHEMBL1142886, “Substrate specificity analysis and inhibitor design of homoisocitrate dehydrogenase” (Bioorg Med Chem, 2007)

Columns and labels:
[1] = Inhibition of Deinococcus radiodurans homoisocitrate dehydrogenase
[2] = biological target: Homoisocitrate dehydrogenase, mitochondrial (Saccharomyces cerevisiae S288c, UniProt P40495); assay: Inhibition of Saccharomyces cerevisiae homoisocitrate dehydrogenase expressed in Escherichia coli Rosetta cells above 10 mM
Sequence of Homoisocitrate dehydrogenase, mitochondrial (P40495 whole entry): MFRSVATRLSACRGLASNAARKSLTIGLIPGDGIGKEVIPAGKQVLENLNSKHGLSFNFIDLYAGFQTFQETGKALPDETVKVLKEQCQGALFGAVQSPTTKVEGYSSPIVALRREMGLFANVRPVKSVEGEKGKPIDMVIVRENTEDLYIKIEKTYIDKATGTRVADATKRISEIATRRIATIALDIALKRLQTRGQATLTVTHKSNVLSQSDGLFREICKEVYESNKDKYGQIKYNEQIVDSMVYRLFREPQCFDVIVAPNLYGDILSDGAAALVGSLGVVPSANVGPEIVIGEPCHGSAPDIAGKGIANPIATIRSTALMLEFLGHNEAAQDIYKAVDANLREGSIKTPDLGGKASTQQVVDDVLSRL

`C=C[C@H](C(=O)O)[C@@H](O)C(=O)O` gave a Ki [1] of 88 µM.
`O=C(O)/C(=C\CCO)[C@@H](O)C(=O)O` gave a Ki [2] of 510 µM and a Ki [1] of 15300 µM.
For `O=C(O)CC/C=C(/C(=O)O)[C@@H](O)C(=O)O`, the Ki [2] was 790 µM and the Ki [1] was 3100 µM.
Molecule `O=C(O)/C(=C/CCO)[C@@H](O)C(=O)O` has a Ki [2] of 1400 µM and a Ki [1] of 5200 µM.
Work on `O=C(O)CC/C=C(\C(=O)O)[C@@H](O)C(=O)O` yielded a Ki [2] of 72 µM and a Ki [1] of 260 µM.
